IC50 data for 25 compounds are collected here from patent publication US20100280010A1, “CHEMICAL COMPOUNDS” (priority 2006, published 2010).

The subject of this test is HIV-1 (Ba-L or IIIB) infection of HOS cell line (expressing hCXCR4/hCCR5/hCD4/pHIV-LTR-luciferase). Put plainly: HOS HIV-1 Infectivity Assay. The note with it: Human immunodeficiency virus 1, HOS, virus strain not given, read-out: Activity Level. Format: cell-based. On the procedure:
Compounds were profiled against two HIV-1 viruses, the M-tropic (CCR5 utilizing) Ba-L strain and the T-tropic (CXCR4 utilizing) IIIB strain. Ba-L was propagated in either peripheral blood lymphocytes or SupT1/CCR5+/CXCR4+ cells. IIIB was propagated in peripheral blood lymphocytes. Compounds were tested for their ability to block infection of the HOS cell line (expressing hCXCR4/hCCR5/hCD4/pHIV-LTR-luciferase) by either HIV-1 Ba-L or HIV-1 IIIB. Compound cytotoxicity was also examined in the absence of virus addition.
HOS cells (expressing hCXCR4/hCCR5/hCD4/pHIV-LTR-luciferase) were harvested and diluted in Dulbeccos modified Eagles media supplemented with 2% FCS to a concentration of 120,000 cells/ml. The cells were plated into 96-well plates (50 μl per well) and the plates were placed in a tissue culture incubator ([…]; 5% CO2195% air) for a period of 24 h.
Subsequently, 50 μl of the desired drug solution (2 times the final concentration) was added to each well and the plates were returned to the tissue culture incubator (370° C.; 5% CO2/95% air) for 1 h. Following this incubation, 60 μl of diluted virus (4 times the final concentration) was added to 60 μl of 2× the final desired concentration of the compound and 100 μl of this compound/virus mix was added to each well (approximately 2 million RLU per well of virus). The plates were returned to the tissue culture incubator (370° C.; 5% CO2/95% air) and were incubated for a further 96 h.
Following this incubation the endpoint for the virally infected cultures was quantified following addition of Steady-Glo Luciferase assay system reagent (Promega, Madison, Wis.). Cell viability or non-infected cultures was measured using a CellTiter-Glo luminescent cell viability assay system (Promega, Madison, Wis.). All luminescent readouts are performed on a Topcount luminescence detector (Packard, Meridien, Conn.).
As to `CCCN(Cc1nc2cccc(N3CCCN(C)CC3)n2c1Cl)[C@H]1CCCc2cccnc21` [Example 84, (8S)—N-{[3-Chloro-5-(4-methylhexahydro-1H-1,4-diazepin-1-yl)imidazo[1,2-a]pyridin-2-yl]methyl}-N-propyl-5,6,7,8-tetrahydro-8-quinolinamine], the IC50 is less than 0.1 µM.
The value for `CCCN(Cc1nc2cccc(N3CCN(C)CC3)n2c1Cl)[C@H]1CCCc2cccnc21` [Example 82, (8S)—N-{[3-Chloro-5-(4-methyl-1-piperazinyl)imidazo[1,2-a]pyridin-2-yl]methyl}-N-propyl-5,6,7,8-tetrahydro-8-quinolinamine] was less than 0.1 µM; that for `CC(C)N(Cc1nc2cccc(N3CCC(N(C)C)CC3)n2c1C(N)=O)[C@H]1CCCc2cccnc21` [Example 71, 5-[4-(dimethylamino)-1-piperidinyl]-2-({(1-methylethyl)[(8S)-5,6,7,8-tetrahydro-8-quinolinyl]amino}methyl)imidazo[1,2-a]pyridine-3-carboxamide] was less than 0.1 µM.
Next, `CCCN(Cc1nc2cccc(N3CCN[C@@H](C)C3)n2c1Cl)[C@H]1CCCc2cccnc21` [Example 88, (8S)—N-({3-Chloro-5-[(3S)-3-methyl-1-piperazinyl]imidazo[1,2-a]pyridin-2-yl}methyl)-N-propyl-5,6,7,8-tetrahydro-8-quinolinamine]: less than 0.1 µM.
In the case of `CN(C)[C@@H]1CCN(c2cccc3nc(CN(C)[C@H]4CCCc5cccnc54)c(C#N)n23)C1` [Example 38, 5-[(3R)-3-(Dimethylamino)-1-pyrrolidinyl]-2-({methyl[(8S)-5,6,7,8-tetrahydro-8-quinolinyl]amino}methyl)imidazo[1,2-a]pyridine-3-carbonitrile], the IC50 is less than 0.1 µM.
For the compound `CN(C)[C@@H]1CCN(c2cccc3nc(CN(C)[C@H]4CCCc5cccnc54)c(C(N)=O)n23)C1` [Example 39, 5-[(3R)-3-(Dimethylamino)-1-pyrrolidinyl]-2-({methyl[(8S)-5,6,7,8-tetrahydro-8-quinolinyl]amino}methyl)imidazo[1,2-a]pyridine-3-carboxamide], the IC50 was less than 0.1 µM.
Next, `CCCN(Cc1nc2cccc(N3CCN(CC)CC3)n2c1Cl)[C@H]1CCCc2cccnc21` [Example 83, (8S)—N-{[3-Chloro-5-(4-ethyl-1-piperazinyl)imidazo[1,2-a]pyridin-2-yl]methyl}-N-propyl-5,6,7,8-tetrahydro-8-quinolinamine]: less than 0.1 µM.
Next, `C[C@H]1CN(c2cccc3nc(CN(C)[C@H]4CCCc5cccnc54)c(Cl)n23)CCN1C` [Example 79, (8S)—N-([3-Chloro-5-[(3S)-3,4-dimethyl-1-piperazinyl]imidazo[1,2-a]pyridin-2-yl]methyl)-N-methyl-5,6,7,8-tetrahydro-8-quinolinamine]: less than 0.1 µM; `CC(C)N(Cc1nc2cccc(N3CCC(N(C)C)CC3)n2c1C#N)[C@H]1CCCc2cccnc21` [Example 70, 5-[4-(dimethylamino)-1-piperidinyl]-2-({(1-methylethyl)[(8S)-5,6,7,8-tetrahydro-8-quinolinyl]amino}methyl)imidazo[1,2-a]pyridine-3-carbonitrile]: less than 0.1 µM; `CCN(Cc1nc2cccc(N3CCN(C)CC3)n2c1C(N)=O)[C@H]1CCCc2cccnc21` [Example 22, 2-({Ethyl[(8S)-5,6,7,8-tetrahydro-8-quinolinyl]amino}methyl)-5-(4-methyl-1-piperazinyl)imidazo[1,2-a]pyridine-3-carboxamide]: less than 0.1 µM.
Next, `CC(=O)c1c(CN(C)[C@H]2CCCc3cccnc32)nc2cccc(N3CCN(C)CC3)n12` [Example 14, 1-[5-(4-Methyl-1-piperazinyl)-2-({methyl[(8S)-5,6,7,8-tetrahydro-8-quinolinyl]amino}methyl)imidazo[1,2-a]pyridin-3-yl]ethanone]: less than 0.1 µM; `CCCN(Cc1nc2cccc(N3CCC(N(C)C)CC3)n2c1C#N)[C@H]1CCCc2cccnc21` [Example 66, 5-[4-(dimethylamino)-1-piperidinyl]-2-({propyl[(8S)-5,6,7,8-tetrahydro-8-quinolinyl]amino}methyl)imidazo[1,2-a]pyridine-3-carbonitrile]: less than 0.1 µM.
Turning to `CN1CCCN(c2cccc3nc(CN(C)[C@H]4CCCc5cccnc54)c(Cl)n23)CC1` [Example 76, (8S)—N-{[3-Chloro-5-(4-methylhexahydro-1H-1,4-diazepin-1-yl)imidazo[1,2-a]pyridin-2-yl]methyl}-N-methyl-5,6,7,8-tetrahydro-8-quinolinamine], the IC50 is less than 0.1 µM.
The value for `CN1CCN(c2cccc3nc(CN(C)[C@H]4CCCc5cccnc54)c(Br)n23)CC1` [Example 16, (8S)—N-{[3-Bromo-5-(4-methyl-1-piperazinyl)imidazo[1,2-a]pyridin-2-yl]methyl}-N-methyl-5,6,7,8-tetrahydro-8-quinolinamine] was less than 0.1 µM.
The value for `CC(C)N(Cc1nc2cccc(N3CC[C@@H](N(C)C)C3)n2c1C(N)=O)[C@H]1CCCc2cccnc21` [Example 51, 5-[(3R)-3-(Dimethylamino)-1-pyrrolidinyl]-2-({(1-methylethyl)[(8S)-5,6,7,8-tetrahydro-8-quinolinyl]amino}methyl)imidazo[1,2-a]pyridine-3-carboxamide] was less than 0.1 µM; that for `CN1CCN(c2cccc3nc(CN(C)[C@H]4CCCc5cccnc54)c(C#N)n23)CC1` [Example 17, 5-(4-Methyl-1-piperazinyl)-2-({methyl[(8S)-5,6,7,8-tetrahydro-8-quinolinyl]amino}methyl)imidazo[1,2-a]pyridine-3-carbonitrile] was less than 0.1 µM.
Next, `CCN(Cc1nc2cccc(N3CC[C@@H](N(C)C)C3)n2c1C#N)[C@H]1CCCc2cccnc21` [Example 42, 5-[(3R)-3-(Dimethylamino)-1-pyrrolidinyl]-2-({ethyl[(8S)-5,6,7,8-tetrahydro-8-quinolinyl]amino}methyl)imidazo[1,2-a]pyridine-3-carbonitrile]: less than 0.1 µM; `CC(C)N(Cc1nc2cccc(N3CC[C@@H](N(C)C)C3)n2c1C#N)[C@H]1CCCc2cccnc21` [Example 50, 5-[(3R)-3-(Dimethylamino)-1-pyrrolidinyl]-2-({(1-methylethyl)[(8S)-5,6,7,8-tetrahydro-8-quinolinyl]amino}methyl)imidazo[1,2-a]pyridine-3-carbonitrile]: less than 0.1 µM.
Regarding `CCN(Cc1nc2cccc(N3CCN(C)CC3)n2c1C#N)[C@H]1CCCc2cccnc21` [Example 21, 2-({Ethyl[(8S)-5,6,7,8-tetrahydro-8-quinolinyl]amino}methyl)-5-(4-methyl-1-piperazinyl)imidazo[1,2-a]pyridine-3-carbonitrile], the IC50 is less than 0.1 µM.
The value for `CCCN(Cc1nc2cccc(N(C)CCN(C)C)n2c1Cl)[C@H]1CCCc2cccnc21` [Example 89, N-[3-Chloro-2-({propyl[(8S)-5,6,7,8-tetrahydro-8-Quinolinyl]amino}methyl)imidazo[1,2-a]pyridin-5-yl]-N,N′,N′-trimethyl-1,2-ethanediamine] was less than 0.1 µM.
As to `CCCN(Cc1cn2c(N3CCC(N(C)C)CC3)cccc2n1)[C@H]1CCCc2cccnc21` [Example 64, (8S)—N-({5-[4-(dimethylamino)-1-piperidinyl]imidazo[1,2-a]pyridin-2-yl}methyl)-N-propyl-5,6,7,8-tetrahydro-8-quinolinamine], the IC50 is less than 0.1 µM.
Next, `CCN1CCN(c2cccc3nc(CN(C)[C@H]4CCCc5cccnc54)c(Cl)n23)CC1` [Example 73, (8S)—N-{[3-Chloro-5-(4-ethyl-1-piperazinyl)imidazo[1,2-a]pyridin-2-yl]methyl}-N-methyl-5,6,7,8-tetrahydro-8-quinolinamine]: less than 0.1 µM.
The value for `CN(Cc1nc2cccc(N3CCN4CCC[C@H]4C3)n2c1Cl)[C@H]1CCCc2cccnc21` [Example 81, (8S)—N-({3-Chloro-5-[(8aS)-hexahydropyrrolo[1,2-a]pyrazin-2(1H)-yl]imidazo[1,2-a]pyridin-2-yl}methyl)-N-methyl-5,6,7,8-tetrahydro-8-quinolinamine] was less than 0.1 µM.
Turning to `CN(C)[C@@H]1CCN(c2cccc3nc(CN(C)[C@H]4CCCc5cccnc54)c(Cl)n23)C1` [Example 74, (8S)—N-({3-Chloro-5-[(3R)-3-(dimethylamino)-1-pyrrolidinyl]imidazo[1,2-a]pyridin-2-yl}methyl)-N-methyl-5,6,7,8-tetrahydro-8-quinolinamine], the IC50 was less than 0.1 µM.
Next, `CCCN(Cc1nc2cccc(N3CCN(C)CC3)n2c1C(N)=O)[C@H]1CCCc2cccnc21` [Example 26, 5-(4-Methyl-1-piperazinyl)-2-({propyl[(8S)-5,6,7,8-tetrahydro-8-quinolinyl]amino}methyl)imidazo[1,2-a]pyridine-3-carboxamide]: less than 0.1 µM.
